# According to US20150306110A1, “COMPOSITIONS AND METHODS FOR TREATMENT OF INFLAMMATION AND HYPERKERATOTIC LESIONS” (Novelix Pharmaceuticals, Inc., priority 2008, published 2015):
# Experiments:
# Mastocytoma-C2 = experiment: Cell growth/survival, canine mastocytoma C2 cells; assay type: cell-based; conditions: Canis lupus familiaris
# Procedure: (§1) Melanoma cell lines used in this study were maintained in Dulbecco's modified Eagle medium (DMEM with 4500 mg/l glucose) supplemented with 10% FCS from Gibco BRL (Life Technologies, Berlin, Germany). The canine mastocytoma cell line C2 (DeVinney et al, Am. J. Respir. Cell Mol. Biol. 3:413-20, 1990) was used in this study, along with additional human cell lines: RD-ES and TC-71 (human Ewing's sarcoma), SAOS2 (human osteosarcoma), HT-1080 (human fibrosarcoma), Caco-2 (human colon adenocarcinoma), A549 (human lung adenocarcinoma), Hep-G2 and Hep-3B (human hepatocellular carcinoma), SK-N-DZ and SK-N-FI (human embryonal neuroblastoma), HTB9 (human bladder cancer), MDA-468 and MCF-7 (human breast cancer) and SW872 liposarcoma. All breast cancer cells were routinely cultured in DMEM/F-12 or in DMEM alone supplemented with 10% FCS at 37° C. in a humidified 5% CO2 atmosphere. RD-ES and TC-71 sarcoma cell lines were maintained in RPMI 1640 (Biochrom KG, Berlin, Germany) containing 10% FCS at 37° C. in a humidified 5% CO2 atmosphere. […]
# (§2) Briefly, cells were maintained in standard medium, harvested, and plated at equal densities (750,000 cells in 5 cm tissue culture dishes). […] For the assessment of cell growth, the number of surviving cells was determined using an automated cell counter from Beckman Coulter GmbH (Krefeld, Germany). […]
# SW872 (liposarcoma) = experiment: Cell growth/survival, SW872 liposarcoma cells; assay type: cell-based; conditions: Homo sapiens, TP53 mut.
# Procedure: as §1, §2
# human keratinocytes = experiment: Survival / anti-proliferative activity in keratinocytes; assay type: cell-based; conditions: for Mean survival, percentage of control-treated cells: n=3
# Procedure: (§3) All cells were treated with 2.5 μM NVX-207. Percentage (means±S.E., n=3) of control-treated cells are given. […] Mean survival in NVX-207 treated fibroblasts at 80% confluency was 92% (S.E.=3.8) versus 3.8% mean survival (S.E.=0.4) at 30% confluency. […] HUVECs, keratinocytes and fibroblast cells were obtained from Lonza GmbH (Wuppertal, Germany) and cultivated according to the manufacturer's instructions.
# (§4) Human umbilical vein endothelial cells (HUVEC), keratinocytes and fibroblast cells were obtained from Lonza GmbH (Wuppertal, Germany) and cultivated according to the manufacturer's instructions. […] The IC50 value of betulinic acid in human keratinocytes was recently determined to be ˜5.0 μg/ml (Tino Galgon al., Exp Dermatol. 14:736-43, 2005), while the IC50 of NVX-207 is ˜0.7 µg/ml. […] Mean survival in NVX-207 treated fibroblasts at 80% confluency was 92% (S.E.=3.8) versus 3.8% mean survival (S.E.=0.4) at 30% confluency. […] Under normal physiological conditions, the endothelium, as well as skin fibroblasts and skin keratinocytes, show relatively low turn-over and limited cell divisions to maintain tissue integrity.
# (§5) Keratinocytes at high confluence (e.g., 80%) mimic normal physiological conditions in which these cells divide more slowly (fewer cell divisions per unit of time). In contrast, keratinocytes in psoriatic lesions divide more rapidly, as do keratinocytes cultured at lower confluency (e.g., 30%). Thus, the 30% confluency conditions were considered a model for psoriasis whereas the behavior of 80% confluent cells more closely reflects the conditions observed in normal skin.
# TC-71 (Ewing's sarcoma) = experiment: Cell growth/survival, TC-71 Ewing's sarcoma cells; assay type: cell-based; conditions: Homo sapiens, TP53 mut.
# Procedure: as §1, §2
# RD-ES (Ewing's sarcoma) = experiment: Cell growth/survival, RD-ES Ewing's sarcoma cells; assay type: cell-based; conditions: Homo sapiens, TP53 mut.
# Procedure: as §1, §2
# SK-N-FI = experiment: Cell growth/survival, SK-N-FI neuronal cancer cells; assay type: cell-based; conditions: Homo sapiens, TP53 mut.
# Procedure: as §1, §2
# A549 = experiment: Cell growth/survival, A549 lung adenocarcinoma cells; assay type: cell-based; conditions: Homo sapiens, TP53 neg.
# Procedure: as §1, §2
# Hep-G2 = experiment: Cell growth/survival, Hep-G2 hepatocellular carcinoma cells; assay type: cell-based; conditions: Homo sapiens, HepG2, TP53 neg.
# Procedure: as §1, §2
# human fibroblasts = experiment: Survival of fibroblasts at 80% and 30% confluency; assay type: cell-based; conditions: 2.5 μM; for Mean survival, percentage of control-treated cells: fibroblasts, n=3
# Procedure: as §3, §4, §5
# Osteosarcoma-D17 = experiment: Cell growth/survival, canine osteosarcoma D17 cells; assay type: cell-based; conditions: Canis lupus familiaris
# [1] = tested on: melanoma, liposarcoma, colon-and lung cancer cells; experiment: Cell growth in select cancer cell lines, NVX-207 compared to betulinic acid (FIGS. 1A-D); assay type: cell-based; conditions: various cancer and non-cancer cells, human and animal cell lines
# Procedure: FIGS. 1A-D show cell survival in select human cancer cell lines: 518A2 melanoma (FIG. 1A), SW872 liposarcoma (FIG. 1B), Caco-2 colon carcinoma (FIG. 1C) and A549 lung carcinoma (FIG. 1D). Cell survival as a percentage of untreated controls (y-axis) in response to NVX-207 (grey lines) or betulinic acid (black lines) in μg/ml (x-axis) are shown.
# as §1, with “liposarcoma.” for “liposarcoma. All breast cancer cells were routinely cultured in DMEM/F-12 or in DMEM alone supplemented with 10% FCS at 37° C. in a humidified 5% CO2 atmosphere. RD-ES and TC-71 sarcoma cell lines were maintained in RPMI 1640 (Biochrom KG, Berlin, Germany) containing 10% FCS at 37° C. in a humidified 5% CO2 atmosphere.”
# as §2
# human skin = experiment: Tolerability of topical NVX-207 on human skin; assay type: in vivo; conditions: 1% topical solution (200 μl, 20% ethanol, 20% Tween 80 in water), human arm, once a day for one week; checked up to 6 months after
# Procedure: A 1% topical solution of NVX-207 (200 μl total volume in 20% ethanol, 20% Tween® 80 in water) was topically applied to an area of skin on a human arm once a day for one week. A control solution (20% ethanol/20% Tween® 80 and 80% water) was applied to an area of skin adjacent to the area to which the NVX-207 solution was applied, also for one week.
smiles,measurement,setting,value
"C=C(C)[C@@H]1CC[C@]2(C(=O)OCC(N)(CO)CO)CC[C@]3(C)[C@H](CC[C@@H]4[C@@]5(C)CC[C@H](OC(C)=O)C(C)(C)[C@@H]5CC[C@]43C)[C@@H]12 [NVX-207, 3-O-acetylbetulinic acid-2-amino-3-hydroxy-2-hydroxymethylpropyl ester]",IC50,Mastocytoma-C2,3 µM
same,IC50,SW872 (liposarcoma),1.8 µM
same,IC50,"human keratinocytes; Homo sapiens, Keratinocyte",~0.7 µg/mL
same,IC50 lower compared to betulinic acid on a molar basis,human keratinocytes; human keratinocytes,~10 fold
same,More active against proliferating cells (30% vs 80% confluency),"human keratinocytes; keratinocytes, 2.5 μM",~6 fold
same,"Mean survival, percentage of control-treated cells","human keratinocytes; keratinocytes, 30% confluency, 2.5 μM",17%
same,"Mean survival, percentage of control-treated cells","human keratinocytes; keratinocytes, 80% confluency, 2.5 μM",92.7%
same,IC50,TC-71 (Ewing's sarcoma),5.5 µM
same,IC50,RD-ES (Ewing's sarcoma),5.3 µM
same,IC50,SK-N-FI,3.7 µM
same,IC50,A549,2.5 µM
same,IC50,Hep-G2,3.3 µM
same,"Mean survival, percentage of control-treated cells",human fibroblasts; 30% confluency,3.8%
same,"Mean survival, percentage of control-treated cells",human fibroblasts; 80% confluency,92%
same,More active against proliferating cells (30% vs 80% confluency),human fibroblasts; human fibroblasts,over 20 fold
same,IC50,Osteosarcoma-D17,3.8 µM
same,Efficacy on a molar basis in promoting cell death compared to betulinic acid,[1],up to 5 fold
same,Undesirable (toxic) effects on treated skin,human skin,no undesirable (toxic) effects
